From ChEMBL document CHEMBL1909046, “DrugMatrix in vitro pharmacology data” come the findings set out here.

Data set [1] concerns the target T1, Cysteinyl leukotriene receptor 1 (Homo sapiens, UniProt Q9Y271). Also: in other assays of this panel Not Active means under 50% inhibition at 10 µM.
T1 sequence (Q9Y271 whole entry): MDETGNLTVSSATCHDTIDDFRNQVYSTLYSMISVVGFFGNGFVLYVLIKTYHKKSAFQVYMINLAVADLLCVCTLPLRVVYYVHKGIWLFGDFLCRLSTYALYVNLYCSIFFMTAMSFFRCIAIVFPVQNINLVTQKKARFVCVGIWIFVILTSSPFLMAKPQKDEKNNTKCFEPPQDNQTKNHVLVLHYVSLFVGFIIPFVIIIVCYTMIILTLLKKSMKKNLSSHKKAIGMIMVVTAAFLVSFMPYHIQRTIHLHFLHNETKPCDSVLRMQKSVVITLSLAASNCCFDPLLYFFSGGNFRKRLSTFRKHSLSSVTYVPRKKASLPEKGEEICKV
It counts as cell membranes, CHO-K1, Membrane. The following applies: cho-k1.

Data set [2] has as its target Carbonic anhydrase 2 (Homo sapiens, UniProt P00918). The data set is described as follows: DRUGMATRIX: Carbonic Anhydrase II enzyme inhibition (substrate: 4-Nitrophenyl acetate (4-NPA)). Format: tissue-based, Erythrocyte. The following applies: erythrocyte; Not Active = under 50% inhibition at 10 µM.
In data set [3] the target is T2, Neuropeptide Y receptor type 1 (Homo sapiens, UniProt P25929). Also: in other assays of this panel Not Active means under 50% inhibition at 10 µM.
T2 sequence (P25929 whole entry): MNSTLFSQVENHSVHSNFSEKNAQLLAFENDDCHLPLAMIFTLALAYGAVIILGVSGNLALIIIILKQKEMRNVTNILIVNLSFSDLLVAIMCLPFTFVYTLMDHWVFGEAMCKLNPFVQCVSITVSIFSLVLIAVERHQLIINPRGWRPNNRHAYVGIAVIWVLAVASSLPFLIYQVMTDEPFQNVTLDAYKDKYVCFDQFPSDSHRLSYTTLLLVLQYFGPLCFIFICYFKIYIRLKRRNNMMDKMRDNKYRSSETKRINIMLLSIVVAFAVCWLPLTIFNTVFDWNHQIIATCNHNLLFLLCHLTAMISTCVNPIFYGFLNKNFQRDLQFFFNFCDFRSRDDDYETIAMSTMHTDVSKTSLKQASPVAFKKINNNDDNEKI
Format: cell membranes, Membrane. The following applies: sk-n-mc.

The nature of data set [4]: DRUGMATRIX: Leukotriene, BLT (LTB4) radioligand binding (ligand: [3H]LTB4). Format: cell membranes, Membrane. The settings on record: u-937; Not Active = under 50% inhibition at 10 µM.
Data set [5] deals with Estrogen receptor beta (Homo sapiens, UniProt Q92731). The following applies: sf9.
Chain of Estrogen receptor beta (Q92731 whole entry): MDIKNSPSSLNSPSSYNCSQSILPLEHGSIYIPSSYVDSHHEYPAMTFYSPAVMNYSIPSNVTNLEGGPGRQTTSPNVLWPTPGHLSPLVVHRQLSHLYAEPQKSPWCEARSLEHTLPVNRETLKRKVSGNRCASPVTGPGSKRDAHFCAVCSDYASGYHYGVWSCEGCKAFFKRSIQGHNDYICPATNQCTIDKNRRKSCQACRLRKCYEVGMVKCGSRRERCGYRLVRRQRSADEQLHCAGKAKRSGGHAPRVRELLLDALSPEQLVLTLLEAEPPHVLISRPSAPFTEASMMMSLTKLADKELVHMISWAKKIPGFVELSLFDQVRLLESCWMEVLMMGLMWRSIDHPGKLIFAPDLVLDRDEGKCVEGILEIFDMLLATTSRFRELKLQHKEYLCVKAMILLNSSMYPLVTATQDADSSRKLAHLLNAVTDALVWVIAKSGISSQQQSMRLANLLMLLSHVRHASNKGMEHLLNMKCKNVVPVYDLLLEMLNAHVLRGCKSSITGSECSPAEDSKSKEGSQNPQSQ
For data set [6], the target named is cGMP-specific 3',5'-cyclic phosphodiesterase (Homo sapiens, UniProt O76074). The experiment in a line: DRUGMATRIX: Phosphodiesterase PDE5 enzyme inhibition (substrate: [3H]cGMP + cGMP). It counts as tissue-based, Platelet. The following applies: Not Active = under 50% inhibition at 10 µM.
Data set [7] is described as follows: DRUGMATRIX: Glutamate, AMPA radioligand binding (ligand: [3H] AMPA). It counts as cell membranes, Rattus norvegicus, Wistar, Cerebral cortex, Membrane. The settings on record: Not Active = under 50% inhibition at 10 µM.
A short description of data set [8]: DRUGMATRIX: Calcium Channel Type L, Benzothiazepine radioligand binding (ligand: [3H] Diltiazem). Format: cell membranes, Rattus norvegicus, Wistar, Brain, Membrane. The settings on record: Not Active = under 50% inhibition at 10 µM.
Data set [9] addresses Protein kinase C alpha type (Homo sapiens, UniProt P17252). Format: cell-based. The following applies: sf9.
Data set [10] concerns the target T3, Amine oxidase [flavin-containing] A (Homo sapiens, UniProt P21397).
T3 sequence (P21397 whole entry): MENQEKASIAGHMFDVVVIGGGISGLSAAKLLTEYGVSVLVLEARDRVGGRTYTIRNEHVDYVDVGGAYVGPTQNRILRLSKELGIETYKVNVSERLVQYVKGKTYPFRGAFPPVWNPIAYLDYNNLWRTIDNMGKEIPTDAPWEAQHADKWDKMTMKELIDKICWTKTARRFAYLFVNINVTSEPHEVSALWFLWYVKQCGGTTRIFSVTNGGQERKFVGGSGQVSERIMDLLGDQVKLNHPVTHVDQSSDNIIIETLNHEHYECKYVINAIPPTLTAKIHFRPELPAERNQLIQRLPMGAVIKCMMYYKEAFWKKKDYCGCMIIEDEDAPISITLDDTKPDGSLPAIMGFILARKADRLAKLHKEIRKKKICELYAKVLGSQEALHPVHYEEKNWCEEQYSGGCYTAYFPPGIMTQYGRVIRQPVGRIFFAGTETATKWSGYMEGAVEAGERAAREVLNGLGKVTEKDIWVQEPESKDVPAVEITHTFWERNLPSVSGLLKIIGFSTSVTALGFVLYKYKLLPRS
The data set is described as follows: DRUGMATRIX: Monoamine Oxidase MAO-A enzyme inhibition (substrate: Kynuramine). Set-up: species or system BTI-TN-5B1-4. The settings on record: Not Active = under 50% inhibition at 10 µM.

The target of data set [11] is Cytochrome P450 2D6 (Homo sapiens, UniProt P10635). The settings on record: bti-tn-5b1-4. Also: in other assays of this panel Not Active means under 50% inhibition at 10 µM.
Chain of Cytochrome P450 2D6 (P10635 whole entry): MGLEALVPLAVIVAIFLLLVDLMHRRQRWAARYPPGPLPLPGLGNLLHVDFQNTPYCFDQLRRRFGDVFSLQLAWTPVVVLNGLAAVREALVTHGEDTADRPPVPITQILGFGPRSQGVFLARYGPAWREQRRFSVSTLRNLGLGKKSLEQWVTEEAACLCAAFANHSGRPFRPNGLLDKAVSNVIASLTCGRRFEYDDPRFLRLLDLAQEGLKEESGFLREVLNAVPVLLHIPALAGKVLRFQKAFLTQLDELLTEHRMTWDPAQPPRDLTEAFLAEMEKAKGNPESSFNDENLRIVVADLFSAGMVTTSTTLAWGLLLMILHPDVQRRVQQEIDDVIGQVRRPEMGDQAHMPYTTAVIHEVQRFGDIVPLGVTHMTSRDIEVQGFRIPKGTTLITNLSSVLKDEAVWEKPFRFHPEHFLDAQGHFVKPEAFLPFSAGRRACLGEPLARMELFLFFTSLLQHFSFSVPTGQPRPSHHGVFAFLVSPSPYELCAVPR
The target of data set [12] is T4, Cytochrome P450 1A2 (Homo sapiens, UniProt P05177). Also: in other assays of this panel Not Active means under 50% inhibition at 10 µM.
T4 sequence (P05177 whole entry): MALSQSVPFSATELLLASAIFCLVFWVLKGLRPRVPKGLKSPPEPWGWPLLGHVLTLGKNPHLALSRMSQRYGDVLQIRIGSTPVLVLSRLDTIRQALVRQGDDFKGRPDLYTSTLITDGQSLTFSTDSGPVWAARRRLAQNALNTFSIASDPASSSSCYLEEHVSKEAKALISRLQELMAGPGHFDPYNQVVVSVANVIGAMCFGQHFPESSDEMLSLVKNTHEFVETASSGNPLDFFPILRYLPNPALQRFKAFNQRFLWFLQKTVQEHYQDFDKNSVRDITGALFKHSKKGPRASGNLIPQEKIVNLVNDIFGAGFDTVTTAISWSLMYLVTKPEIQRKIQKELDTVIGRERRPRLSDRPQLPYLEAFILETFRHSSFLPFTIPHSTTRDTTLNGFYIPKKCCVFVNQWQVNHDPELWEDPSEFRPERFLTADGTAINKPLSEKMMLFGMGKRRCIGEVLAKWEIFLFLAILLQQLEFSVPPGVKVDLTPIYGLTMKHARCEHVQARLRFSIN
The settings on record: bti-tn-5b1-4.

SMILES strings stand for the structures.

`CC(C)NC[C@H](O)COc1cccc2[nH]ccc12`: the IC50 entry in data set [1], in data set [2], in data set [3], in data set [4], in data set [5] and in data set [6] (platelet) was “Not Active” throughout. Besides, the IC50 entry in [7], in [8], in data set [9] and in data set [10] (bti-tn-5b1-4) was “Not Active” in each case. In addition, the Ki result in data set [4], in [7] and in data set [8] was “Not Active” throughout.
Turning to `c1ccc2c(c1)cc1ccc3cccc4ccc2c1c34`, the IC50 entry in [1], in data set [2], in data set [11], in data set [3], in data set [4] and in data set [5] was “Not Active” throughout. In addition, the IC50 entry was “Not Active” in data set [6] (platelet); “Not Active” in data set [7]; “Not Active” in data set [8]; “Not Active” in [9]; 5.97 µM in data set [10] (read-out: IC50). Moreover, the Ki result in data set [11], in data set [4], in [7] and in [8] was “Not Active” in each case.
Consider `Cc1[nH]cnc1CN1CCc2c(c3ccccc3n2C)C1=O` [ALOSETRON], for which the IC50 result in data set [1], in data set [2], in data set [11], in data set [3], in data set [4] and in [5] was “Not Active” throughout. Further, the IC50 result in data set [6] (platelet), in data set [7], in data set [8], in [9] and in data set [10] (bti-tn-5b1-4) was “Not Active” each time. The Ki entry in data set [11], in [4], in data set [7] and in data set [8] was “Not Active” in each case.
Turning to `O=c1cc(-c2ccccc2)oc2c1ccc1ccccc12` [ALPHA-NAPHTHOFLAVONE], the IC50 entry in data set [1], in [2], in data set [11], in data set [3], in [4] and in data set [5] was “Not Active” each time. For the same compound, the IC50 was 2.3 µM in data set [6] (read-out: IC50); “Not Active” in [7]; “Not Active” in [8]; “Not Active” in data set [9]; “Not Active” in data set [10] (bti-tn-5b1-4). In addition, the Ki result in data set [11], in data set [4], in data set [7] and in [8] was “Not Active” in each case.
Take `CCCCOC(=O)c1ccc(N)cc1` [BUTAMBEN]: the IC50 entry in data set [1], in [2], in data set [3], in [4], in data set [5] and in data set [6] (platelet) was “Not Active” in each case. Besides, the IC50 entry in data set [7], in [8], in data set [9] and in data set [10] (bti-tn-5b1-4) was “Not Active” each time. Also, the Ki entry in data set [4], in [7] and in data set [8] was “Not Active” in each case.
For the compound `O=C(O)c1cn(C2CC2)c2cc(N3CCNCC3)c(F)cc2c1=O` [CIPROFLOXACIN], the IC50 result in [1], in [2], in data set [3], in [4], in [5] and in data set [6] (platelet) was “Not Active” each time. In addition, the IC50 result in data set [7], in data set [8], in [9] and in data set [10] (bti-tn-5b1-4) was “Not Active” each time. Moreover, the Ki result in [4], in data set [7] and in [8] was “Not Active” throughout.
`O=C1OCCN1/N=C/c1ccc([N+](=O)[O-])o1` [FURAZOLIDONE]: the IC50 entry in [1], in data set [2], in data set [3], in data set [4], in [5] and in [6] (platelet) was “Not Active” in each case. Also, the IC50 entry in [7], in data set [8], in data set [9] and in data set [10] (bti-tn-5b1-4) was “Not Active” in each case. The Ki result in data set [4], in [7] and in data set [8] was “Not Active” throughout.
With `NCC(=O)O` [GLYCINE], the IC50 result in data set [1], in data set [2], in [3], in data set [4], in [5] and in data set [6] (platelet) was “Not Active” throughout. The IC50 result in data set [7], in data set [8], in [9] and in data set [10] (bti-tn-5b1-4) was “Not Active” each time. The Ki entry in [4], in [7] and in [8] was “Not Active” in each case.
As to `CCCc1cc(=O)[nH]c(=S)[nH]1` [PROPYLTHIOURACIL], the IC50 result in [12], in data set [1], in data set [2], in data set [11], in data set [3] and in data set [4] was “Not Active” in each case. Further, the IC50 result in data set [6] (platelet), in data set [7], in data set [8], in [9] and in [10] (bti-tn-5b1-4) was “Not Active” each time. The Ki result in [12], in data set [11], in data set [4], in [7] and in [8] was “Not Active” in each case.

For orientation: IC50 means the midpoint of a concentration-inhibition curve.
